Results: patent publication US10576062B2, “Carbamoyloxymethyl triazole cyclohexyl acids as LPA antagonists” (Bristol-Myers Squibb Company, priority 2016, dated 2020)

biological target: T1, human LPA1 (Homo sapiens, UniProt Q92633); test: LPA1 functional antagonist assay (LPA-induced calcium flux); type: cell-based; details: CHO cells overexpressing human LPA1; inhibition of calcium flux induced by 10 nM LPA; read-out: hLPA1 IC50
T1 construct: expressed in transfected cells; host or cells: Chinese hamster ovary (CHO) cells
Method in brief: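 CHO cells overexpressing human LPA1, loaded with calcium dye 30 min at 37° C, were preincubated 20 min at room temperature with compound (0.08 nM–5 μM, 0.5% DMSO) in HBSS/20 mM HEPES/0.1% fatty acid-free BSA.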

T1 sequence (Q92633 whole entry): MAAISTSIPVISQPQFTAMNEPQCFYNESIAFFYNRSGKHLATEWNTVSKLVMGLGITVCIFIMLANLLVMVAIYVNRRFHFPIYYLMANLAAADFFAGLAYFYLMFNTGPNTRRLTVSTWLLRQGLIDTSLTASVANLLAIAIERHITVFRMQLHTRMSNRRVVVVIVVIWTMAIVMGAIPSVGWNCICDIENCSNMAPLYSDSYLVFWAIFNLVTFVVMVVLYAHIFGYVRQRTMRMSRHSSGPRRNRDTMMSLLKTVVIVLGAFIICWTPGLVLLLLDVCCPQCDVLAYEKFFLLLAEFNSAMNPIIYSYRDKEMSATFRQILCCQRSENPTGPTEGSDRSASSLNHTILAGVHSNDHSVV

IC50 [nM]	SMILES
35	CCCN(C)C(=O)OCc1c(-c2ccc(O[C@H]3CCC[C@H](C(=O)O)C3)c(C(F)F)n2)nnn1C [Example 277, (1S,3S)-3-((2-(difluoromethyl)-6-(1-methyl-5-(((methyl(propyl)carbamoyl)oxy)methyl)-1H-1,2,3-triazol-4-yl)pyridin-3-yl)oxy)cyclohexane-1-carboxylic acid]
41	Cc1nc(-c2nnn(C)c2CCOC(=O)N(C)CC2CCC2)ccc1O[C@H]1CCC[C@H](C(=O)O)C1 [Example 241, (1S,3S)-3-((6-(5-(2-(((Cyclobutylmethyl)(methyl)carbamoyl)oxy)ethyl)-1-methyl-1H-1,2,3-triazol-4-yl)-2-methylpyridin-3-yl)oxy)cyclohexane-1-carboxylic Acid]
194	CCCN(C)C(=O)OCc1c(-c2cnc(O[C@H]3CCC[C@H](C(=O)O)C3)c(C)n2)nnn1C [Example 218, (1S,3S)-3-((3-methyl-5-(1-methyl-5-(((methyl(propyl)carbamoyl)oxy)methyl)-1H-1,2,3-triazol-4-yl)pyrazin-2-yl)oxy)cyclohexane-1-carboxylic Acid]
46	CCc1nc(-c2nnn(C)c2COC(=O)NCc2ccccc2)ccc1O[C@H]1CCC[C@H](C(=O)O)C1 [Example 198, (1S,3S)-3-((6-(5-(((benzylcarbamoyl)oxy)methyl)-1-methyl-1H-1,2,3-triazol-4-yl)-2-ethylpyridin-3-yl)oxy)cyclohexane-1-carboxylic acid]
48	CCCCN(C)C(=O)OCc1c(-c2ccc(O[C@H]3CCC[C@H](C(=O)O)C3)c(COC)n2)nnn1C [Example 284]
121	Cc1nc(-c2nnn(C)c2COC(=O)N(C)CC(C)C)cnc1O[C@H]1CCC[C@H](C(=O)O)C1 [Example 224, (1S,3S)-3-((5-(5-(((isobutyl(methyl)carbamoyl)oxy)methyl)-1-methyl-1H-1,2,3-triazol-4-yl)-3-methylpyrazin-2-yl)oxy)cyclohexane-1-carboxylic acid]
145	Cc1nc(-c2nnn(C)c2COC(=O)N(C)CC(C)F)ccc1O[C@H]1CCC[C@H](C(=O)O)C1 (stereo partly drawn) [Example 261, (1S,3S)-3-((6-(5-((((2-fluoropropyl)(methyl)carbamoyl)oxy)methyl)-1-methyl-1H-1,2,3-triazol-4-yl)-2-methylpyridin-3-yl)oxy)cyclohexane-1-carboxylic acid]

same assay, conditions: human LPA1; read-out: hLPA1 IC50

IC50 [nM]	SMILES
1700	CCCN(C)C(=O)OCc1c(-c2ccc(O[C@@H]3CCC[C@@H](C(=O)O)C3)c(C)n2)nnn1C [Example 193, (1R,3R)-3-((2-methyl-6-(1-methyl-5-(((methyl(propyl)carbamoyl)oxy)methyl)-1H-1,2,3-triazol-4-yl)pyridin-3-yl)oxy)cyclohexane-1-carboxylic acid]
101	CN(C(=O)OCc1c(-c2ccc(O[C@H]3CCC[C@H](C(=O)O)C3)cn2)nnn1C)C1CC(C)(C)C1 [Example 181, (1S,3S)-3-((6-(5-((((3,3-dimethylcyclobutyl)(methyl)carbamoyl)oxy)methyl)-1-methyl-1H-1,2,3-triazol-4-yl)pyridin-3-yl)oxy)cyclohexane-1-carboxylic acid]

same assay, conditions: read-out: hLPA1 IC50

IC50 [nM]	SMILES
283	Cc1nc(-c2nnn(C)c2COC(=O)N(C)C2CC(F)(F)C2)ccc1O[C@H]1CCC[C@@H](C(=O)O)C1 [Example 141, (1R,3S)-3-((6-(5-((((3,3-difluoro-cyclobutyl)(methyl)carbamoyl)oxy)methyl)-1-methyl-1H-1,2,3-triazol-4-yl)-2-methylpyridin-3-yl)oxy)cyclohexane-1-carboxylic acid]
346	Cc1nc(-c2nnn(C)c2COC(=O)N(C)CC2CCOC2)ccc1O[C@H]1CCC[C@H](C(=O)O)C1 (stereo partly drawn) [Example 126, (1S,3S)-3-((2-methyl-6-(1-methyl-5-(((methyl((tetrahydrofuran-3-yl)methyl)carbamoyl)oxy)methyl)-1H-1,2,3-triazol-4-yl)pyridin-3-yl)oxy)cyclohexane-1-carboxylic acid]
250	CCCCCN(C)C(=O)OCc1c(-c2ccc(O[C@H]3CCC[C@H](C(=O)O)C3)cc2)nnn1C (racemic) [Example 58, (rac)-trans-3-(4-(1-methyl-5-(((methyl(pentyl)carbamoyl)oxy)methyl)-1H-1,2,3-triazol-4-yl)phenoxy)cyclohexane-1-carboxylic acid]
157	CCC1CCCN1C(=O)OCc1c(-c2ccc(O[C@H]3CCC[C@H](C(=O)O)C3)c(C)n2)nnn1C (mixture of isomers) [Example 152, (1S,3S)-3-((6-(5-(((2-ethylpyrrolidine-1-carbonyl)oxy)methyl)-1-methyl-1H-1,2,3-triazol-4-yl)-2-methylpyridin-3-yl)oxy)cyclohexane-1-carboxylic acid]
175	Cc1nc(-c2nnn(C)c2COC(=O)N2CC(C)(C)C2)ccc1O[C@H]1CCC[C@H](C(=O)O)C1 [Example 155, (1S,3S)-3-((6-(5-(((3,3-dimethylazetidine-1-carbonyl)oxy)methyl)-1-methyl-1H-1,2,3-triazol-4-yl)-2-methylpyridin-3-yl)oxy)cyclohexane-1-carboxylic acid]
47	CCC(CC)N(C)C(=O)OCc1c(-c2ccc(O[C@H]3CCC[C@H](C(=O)O)C3)cc2)nnn1C [Example 76, (1S,3S)-3-(4-(1-methyl-5-(((methyl(pentan-3-yl)carbamoyl)oxy)methyl)-1H-1,2,3-triazol-4-yl)phenoxy)cyclohexane-1-carboxylic acid]
325	Cc1nc(-c2nnn(C)c2COC(=O)N2CC3CCC2C3)ccc1O[C@H]1CCC[C@H](C(=O)O)C1 (stereo partly drawn) [Example 148, (1S,3S)-3-((6-(5-(((-2-azabicyclo[2.2.1]heptane-2-carbonyl)oxy)methyl)-1-methyl-1H-1,2,3-triazol-4-yl)-2-methylpyridin-3-yl)oxy)cyclohexane-1-carboxylic acid]
20	CCCC1(N(C)C(=O)OCc2c(-c3ccc(O[C@H]4CCC[C@H](C(=O)O)C4)cc3)nnn2C)CC1 [Example 75, (1S,3S)-3-(4-(1-methyl-5-(((methyl(1-propylcyclopropyl)carbamoyl)oxy)methyl)-1H-1,2,3-triazol-4-yl)phenoxy)cyclohexane-1-carboxylic acid]
15	CCN(CC1CCC1)C(=O)OCc1c(-c2ccc(O[C@H]3CCC[C@H](C(=O)O)C3)c(C)n2)nnn1C [Example 113, (1S,3S)-3-((6-(5-((((cyclobutylmethyl)(ethyl)carbamoyl)oxy)methyl)-1-methyl-1H-1,2,3-triazol-4-yl)-2-methylpyridin-3-yl)oxy)cyclohexane-1-carboxylic acid]
28	Cc1nc(-c2nnn(C)c2COC(=O)N(C)C(C)C2CCC2)ccc1O[C@H]1CCC[C@H](C(=O)O)C1 (mixture of isomers) [Example 20, (1S,3S)-3-((6-(5-((((1-cyclobutylethyl)(methyl)carbamoyl)oxy)methyl)-1-methyl-1H-1,2,3-triazol-4-yl)-2-methylpyridin-3-yl)oxy)cyclohexane-1-carboxylic acid]
92	CCC(CC)N(C)C(=O)OCc1c(-c2ccc(O[C@H]3CCC[C@H](C(=O)O)C3)c(C)n2)nnn1C [Example 83, (1S,3S)-3-((2-Methyl-6-(1-methyl-5-(((methyl(pentan-3-yl)carbamoyl)oxy)methyl)-1H-1,2,3-triazol-4-yl)pyridin-3-yl)oxy)cyclohexanecarboxylic acid]
